Results published in patent US20220362348A1, “LACTOFERRIN, DERIVED PEPTIDE THEREOF AND METHOD THEREOF FOR INHIBITING AND/OR ALLEVIATING LIPID SYNTHESIS” (RENORIGIN INNOVATION INSTITUTE CO., LTD., priority 2021, published 2022).

Test system: Human sebocytes
Experiment: Neutral fat detection (Nile red staining, fluorescence intensity) in linoleic acid-induced sebocytes
Type: cell-based
Conditions: for concentration dependence of inhibition of LA-induced lipid content: FIGS. 1-4, lactoferrin 100-400 μg/mL, peptides 25-100 μg/mL
Method: Human sebocytes (Cat. No. 36079-01, Celprogen, Torrance, Calif., USA) were cultured in Dulbecco's Modified Eagle Medium (DMEM): Nutrient Mixture F-12 (DMEM/F12) purchased from Thermo Fisher Scientific Limited (Barrington, Ill., USA), 10% fetal bovine serum (FBS) purchased from Gibco, Grand Island, N.Y., USA and penicillin/streptomycin (100 IU/50 […]), incubated at 37° C. in the 5% CO2 atmosphere.
Human sebocytes were implanted in 24- or 96-well plates. After 24 hours of culture, the cells were divided into a negative control group, a positive control group and an experimental group. […] The treated human sebocytes were cultured for two days. Human sebocytes were fixed with 4% formaldehyde at room temperature. After 60 minutes of fixation, the cells were washed with PBS and stained with Nile Red solution (1 μg/ml in PBS) at 37° C. for 15 minutes. Next, the cells were washed and observed under a fluorescent microscope. Fluorescence intensity is measured with fluorometer Spectra Max i3.

[1] = FIG. 5, 0.1 mM LA + 50 μg/mL peptide
[2] = FIG. 5, 0.1 mM LA + 50 μg/mL peptide, negative control about 1.0, positive control about 2.5
[3] = FIGS. 2-4, 0.1 mM LA + 25 to 100 μg/mL peptide
[4] = FIGS. 2-4 D, 0.1 mM LA + 25 μg/mL peptide, two days, negative control about 1.0
[5] = FIGS. 2-4 D, 0.1 mM LA + 50 μg/mL peptide, two days, negative control about 1.0
[6] = FIGS. 2-4 D, 0.1 mM LA + 100 μg/mL peptide, two days, negative control about 1.0

## CCCCC/C=C\C/C=C\CCCCCCCC(=O)O [LA, linoleic acid, reference compound]
0.1 mM linoleic acid (LA) alone
  lipid content induced by LA relative to negative control group: more than 2 times

## lactoferrin peptide 85-91: Derived peptide of lactoferrin comprising the amino acid sequence of SEQ ID NO: 03 (KESPQTH; Lactoferrin derived peptide)
[1]
  lipid content reduced compared with positive control group (LA): 40%
[2]
  fluorescence intensity (lipid content, Nile red): about 1.5
  concentration dependence of inhibition of LA-induced lipid content: dose-dependent manner
[3]
  lipid content reduced compared with positive control group (LA): 25%
[4]
  fluorescence intensity (lipid content, Nile red): about 1.5
[5]
  fluorescence intensity (lipid content, Nile red): about 1.5
[6]
  fluorescence intensity (lipid content, Nile red): about 1.5

## lactoferrin peptide 69-75: Derived peptide of lactoferrin comprising the amino acid sequence of SEQ ID NO: 02 (RDPYKLR; Lactoferrin derived peptide)
[1]
  lipid content reduced compared with positive control group (LA): 40%
[2]
  fluorescence intensity (lipid content, Nile red): about 1.5
  concentration dependence of inhibition of LA-induced lipid content: dose-dependent manner
[3]
  lipid content reduced compared with positive control group (LA): 25%
[4]
  fluorescence intensity (lipid content, Nile red): about 1.5
[5]
  fluorescence intensity (lipid content, Nile red): about 1.5
[6]
  fluorescence intensity (lipid content, Nile red): about 1.5

## lactoferrin peptide 695-701: Derived peptide of lactoferrin comprising the amino acid sequence of SEQ ID NO: 04 (KKCSTSP; Lactoferrin derived peptide)
[1]
  lipid content reduced compared with positive control group (LA): 40%
[2]
  fluorescence intensity (lipid content, Nile red): about 1.5
  concentration dependence of inhibition of LA-induced lipid content: dose-dependent manner
[3]
  lipid content reduced compared with positive control group (LA): 25%
[4]
  fluorescence intensity (lipid content, Nile red): about 1.5
[5]
  fluorescence intensity (lipid content, Nile red): about 1.5
[6]
  fluorescence intensity (lipid content, Nile red): about 1.5
